Test results from PubChem BioAssay (NCI).
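The concentration for 50% growth inhibition is given as GI50. TGI is the concentration that stops growth completely.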

How the values were obtained:
Experiment in all cases: NCI anticancer screen, dose series, 384-well format
786-0 renal = system: 786-0 renal
A498 renal = system: A498 renal
A549 NSCLC = system: A549 NSCLC
ACHN renal = system: ACHN renal
BT-549 breast = system: BT-549 breast
CAKI-1 renal = system: CAKI-1 renal
COLO 205 colon = system: COLO 205 colon
DU-145 prostate = system: DU-145 prostate
EKVX NSCLC = system: EKVX NSCLC
HCC-2998 colon = system: HCC-2998 colon
HCT-116 colon = system: HCT-116 colon
HCT-15 colon = system: HCT-15 colon
HL-60(TB) leukemia = system: HL-60(TB) leukemia
HOP-62 NSCLC = system: HOP-62 NSCLC
HOP-92 NSCLC = system: HOP-92 NSCLC
HS 578T breast = system: HS 578T breast
HT29 colon = system: HT29 colon
IGROV1 ovarian = system: IGROV1 ovarian
KM12 colon = system: KM12 colon
LOX IMVI melanoma = system: LOX IMVI melanoma
M14 melanoma = system: M14 melanoma
MALME-3M melanoma = system: MALME-3M melanoma
MCF7 breast = system: MCF7 breast
MDA-MB-231 breast = system: MDA-MB-231 breast
MDA-MB-435 melanoma = system: MDA-MB-435 melanoma
MDA-MB-468 breast = system: MDA-MB-468 breast
MOLT-4 leukemia = system: MOLT-4 leukemia
NCI-H226 lung = system: NCI-H226 lung
NCI-H23 lung = system: NCI-H23 lung
NCI-H322M lung = system: NCI-H322M lung
NCI-H460 NSCLC = system: NCI-H460 NSCLC
NCI-H522 lung = system: NCI-H522 lung
NCI/ADR-RES ovarian = system: NCI/ADR-RES ovarian
OVCAR-3 ovarian = system: OVCAR-3 ovarian
OVCAR-4 ovarian = system: OVCAR-4 ovarian
OVCAR-5 ovarian = system: OVCAR-5 ovarian
OVCAR-8 ovarian = system: OVCAR-8 ovarian
PC-3 prostate = system: PC-3 prostate
RPMI-8226 leukemia = system: RPMI-8226 leukemia
SF-268 CNS = system: SF-268 CNS
SF-295 CNS = system: SF-295 CNS
SF-539 CNS = system: SF-539 CNS
SK-MEL-28 melanoma = system: SK-MEL-28 melanoma
SK-MEL-5 melanoma = system: SK-MEL-5 melanoma
SK-OV-3 ovarian = system: SK-OV-3 ovarian
SN12C renal = system: SN12C renal
SNB-19 CNS = system: SNB-19 CNS
SR leukemia = system: SR leukemia
SW-620 colon = system: SW-620 colon
T-47D breast = system: T-47D breast
TK-10 renal = system: TK-10 renal
U251 glioblastoma = system: U251 glioblastoma
UACC-257 melanoma = system: UACC-257 melanoma
UACC-62 melanoma = system: UACC-62 melanoma
UO-31 renal = system: UO-31 renal

Cc1nc(Nc2ncc(C(=O)Nc3c(C)cccc3Cl)s2)cc(N2CCN(CCO)CC2)n1
GI50 (786-0 renal): 35.7 nM
TGI (786-0 renal): 2500 nM
GI50 (A498 renal): 251 nM
TGI (A498 renal): 2750 nM
GI50 (A549 NSCLC): 27.5 nM
TGI (A549 NSCLC): 12600 nM
GI50 (ACHN renal): 17.2 nM
TGI (ACHN renal): 234 nM
GI50 (BT-549 breast): 32.7 nM
TGI (BT-549 breast): 1260 nM
GI50 (CAKI-1 renal): 27.7 nM
TGI (CAKI-1 renal): 225 nM
GI50 (COLO 205 colon): 3800 nM
TGI (COLO 205 colon): 10700 nM
GI50 (DU-145 prostate): 227 nM
TGI (DU-145 prostate): 4850 nM
GI50 (EKVX NSCLC): 724 nM
TGI (EKVX NSCLC): 15600 nM
GI50 (HCC-2998 colon): 5080 nM
TGI (HCC-2998 colon): 16800 nM
GI50 (HCT-116 colon): 4830 nM
TGI (HCT-116 colon): 17400 nM
GI50 (HCT-15 colon): 1030 nM
TGI (HCT-15 colon): 13700 nM
GI50 (HL-60(TB) leukemia): 7230 nM
TGI (HL-60(TB) leukemia): 18100 nM
GI50 (HOP-62 NSCLC): 64.8 nM
TGI (HOP-62 NSCLC): 12200 nM
GI50 (HOP-92 NSCLC): 37.2 nM
TGI (HOP-92 NSCLC): 2040 nM
GI50 (HS 578T breast): 12.9 nM
TGI (HS 578T breast): 49.4 nM
GI50 (HT29 colon): 2020 nM
TGI (HT29 colon): 13300 nM
TGI (IGROV1 ovarian): 37.5 nM
GI50 (KM12 colon): 7300 nM
TGI (KM12 colon): 19800 nM
GI50 (LOX IMVI melanoma): 27.7 nM
TGI (LOX IMVI melanoma): 1250 nM
GI50 (M14 melanoma): 2860 nM
TGI (M14 melanoma): 8230 nM
GI50 (MALME-3M melanoma): 3190 nM
TGI (MALME-3M melanoma): 8820 nM
GI50 (MCF7 breast): 10000 nM
TGI (MCF7 breast): 21700 nM
GI50 (MDA-MB-231 breast): 25.1 nM
TGI (MDA-MB-231 breast): 1040 nM
GI50 (MDA-MB-435 melanoma): 9250 nM
TGI (MDA-MB-435 melanoma): 20800 nM
GI50 (MDA-MB-468 breast): 695 nM
TGI (MDA-MB-468 breast): 4510 nM
GI50 (MOLT-4 leukemia): 1000 nM
TGI (MOLT-4 leukemia): 3000 nM
GI50 (NCI-H226 lung): 24.7 nM
TGI (NCI-H226 lung): 2640 nM
GI50 (NCI-H23 lung): 2590 nM
TGI (NCI-H23 lung): 10700 nM
GI50 (NCI-H322M lung): 38.1 nM
TGI (NCI-H322M lung): 973 nM
GI50 (NCI-H460 NSCLC): 9520 nM
TGI (NCI-H460 NSCLC): 21400 nM
GI50 (NCI-H522 lung): 13.5 nM
TGI (NCI-H522 lung): 98 nM
GI50 (NCI/ADR-RES ovarian): 1870 nM
TGI (NCI/ADR-RES ovarian): 14700 nM
GI50 (OVCAR-3 ovarian): 15.1 nM
TGI (OVCAR-3 ovarian): 419 nM
GI50 (OVCAR-4 ovarian): 58.8 nM
TGI (OVCAR-4 ovarian): 850 nM
GI50 (OVCAR-5 ovarian): 41 nM
TGI (OVCAR-5 ovarian): 6270 nM
GI50 (OVCAR-8 ovarian): 64.3 nM
TGI (OVCAR-8 ovarian): 2970 nM
GI50 (PC-3 prostate): 3120 nM
TGI (PC-3 prostate): 17500 nM
GI50 (RPMI-8226 leukemia): 2110 nM
TGI (RPMI-8226 leukemia): 5500 nM
GI50 (SF-268 CNS): 30.3 nM
TGI (SF-268 CNS): 128 nM
GI50 (SF-295 CNS): 2590 nM
TGI (SF-295 CNS): 18900 nM
GI50 (SF-539 CNS): 48.2 nM
TGI (SF-539 CNS): 1640 nM
GI50 (SK-MEL-28 melanoma): 5620 nM
TGI (SK-MEL-28 melanoma): 18700 nM
GI50 (SK-MEL-5 melanoma): 4260 nM
TGI (SK-MEL-5 melanoma): 15100 nM
GI50 (SK-OV-3 ovarian): 49.6 nM
TGI (SK-OV-3 ovarian): 3140 nM
GI50 (SN12C renal): 13.9 nM
TGI (SN12C renal): 3390 nM
GI50 (SNB-19 CNS): 8690 nM
TGI (SNB-19 CNS): 21700 nM
GI50 (SR leukemia): 5440 nM
TGI (SR leukemia): 8780 nM
GI50 (SW-620 colon): 15100 nM
TGI (SW-620 colon): 28600 nM
GI50 (T-47D breast): 176 nM
TGI (T-47D breast): 15100 nM
GI50 (TK-10 renal): 25.9 nM
TGI (TK-10 renal): 164 nM
GI50 (U251 glioblastoma): 4200 nM
TGI (U251 glioblastoma): 17800 nM
GI50 (UACC-257 melanoma): 5530 nM
TGI (UACC-257 melanoma): 18200 nM
GI50 (UACC-62 melanoma): 2050 nM
TGI (UACC-62 melanoma): 10100 nM
GI50 (UO-31 renal): 57 nM
TGI (UO-31 renal): 840 nM
